What was measured:
physchem = details: buffer, pH 7.4
Description: (§1) The in vitro stability of MB076 and S02030 was evaluated by incubating the compounds in both buffer (pH 7.4) and human plasma at 37 °C over 48 h. Half-lives (t1/2) were then calculated for each compound.
(§2) Plasma and buffer stability samples were analyzed by monitoring the disappearance of the compounds using high-performance liquid chromatography-mass spectrometry (LC–MS) techniques.
Standard solutions were prepared by adding the compound in DMSO (2.5 μM) to 0.1 M phosphate buffer pH 7.4 and MeOH. Solutions were vortexed, filtered, and analyzed by LC–MS (At=0). Samples were then prepared by adding a solution of the compound in DMSO (2.5 μM) to phosphate buffer pH 7.4 and incubating at 37 °C. At suitable time intervals, the reaction was stopped by the addition of MeOH. The solutions were vortexed and filtered. Degradation time courses were followed by LC–MS enabling the quantitation of compounds. Half-lives (t1/2) were calculated in Origin using a one-phase decay model with t1/2 = ln(2)/b, where b is the slope of a linear plot of natural logarithm (ln) of the remaining compound concentration (C) versus incubation time. Each condition was tested in triplicate.

ADC variants = assay: Inhibition kinetics, statement for all ADC variants; type: biochemical, Acinetobacter baumannii; details: bound stated for all ADC variants of the study
Description: (§3) For inhibition kinetics, utilizing nitrocefin (NCF) as a colorimetric substrate, the inhibition constant (Ki) of MB076 and S02030 BATSI with ADCs was determined using competition kinetics as previously described.[10],[25],[28],[34] The measurements of the initial velocities were performed with the addition of 100 μM NCF after a 3 min pre-incubation of the enzyme (2 nM) with increasing concentration of the inhibitor. […] The Ki value was corrected for the NCF affinity (KM values for each ADC variant listed in Table 1) with the Cheng–Prusoff[35] equation: [drawing 2]

in vitro = details: human, plasma, pH 7.4
Description: as §1, §2
Half-lives (t1/2) were calculated in Origin using a one-phase decay model with t1/2 = ln(2)/b, where b is the slope of a linear plot of natural logarithm (ln) of the remaining compound concentration (C) versus incubation time. Each condition was tested in triplicate.

ADC-33 [1] = molecular target: T1, ADC-33 (Acinetobacter baumannii, UniProt A7Y407); assay: Inhibition kinetics (competition with nitrocefin), ADC-33; type: biochemical; details: 100 μM nitrocefin, 3 min pre-incubation
Description: as §3

ADC-7 = ADC-7 (Acinetobacter baumannii, UniProt Q6DRA1); assay: Inhibition kinetics (competition with nitrocefin), ADC-7; type: biochemical; details: 100 μM nitrocefin, 3 min pre-incubation, Cheng–Prusoff corrected
Description: as §3

ADC-30 = ADC-30 (Acinetobacter baumannii, UniProt A7XM81); assay: Inhibition kinetics (competition with nitrocefin), ADC-30; type: biochemical; details: 100 μM nitrocefin, 3 min pre-incubation
Description: as §3

[2] = system: ADC-212 in pBCSK(−) E. coli DH10B; assay: Broth microdilution AST, ADC-212; type: cell-based
Description: (§4) Susceptibility testing to standard antibiotics was performed by broth microdilution or agar dilution using an Oxoid replicator according to 2021 Clinical and Laboratory Standards Institute (CLSI) guidelines. MICs for CAZ, CTX, FEP, and TOL were determined using cation-adjusted Mueller Hinton MH broth, and MICs for FDC were done in iron-depleted cation-adjusted MH broth according to CLSI methods. MB076, S02030, and VAB were used at a fixed concentration of 10 mg/L. All MICs were interpreted according to the 2021 CLSI guidelines.[43]
(§5) blaADC-7 pBCSK- was cloned and expressed in E. coli DH10B cells as previously described.[44] All other blaADC variants were synthesized by GenScript according to the blaADC-7 pBCSK- strategy, cloning into the XbaI/BamHI sites of the pBCSK- vector.

ADC-162 = ADC-162 (Acinetobacter baumannii, UniProt A0A2H4PPJ8); assay: Inhibition kinetics (competition with nitrocefin), ADC-162; type: biochemical
Description: as §3

[3] = system: ADC-33 in pBCSK(−) E. coli DH10B; assay: Agar dilution AST, ADC-33; type: cell-based
Description: as §4, §5

[4] = system: ADC-7 in pBCSK(−) E. coli DH10B; assay: Agar dilution AST, ADC-7; type: cell-based; details: Escherichia coli, E. coli DH10B ADC-7, MB076, S02030, VAB fixed at 10 mg/L
Description: as §4, §5

[5] = system: ADC-30 in pBCSK(−) E. coli DH10B; assay: Broth microdilution AST, ADC-30; type: cell-based; details: Escherichia coli, E. coli DH10B ADC-30, MB076 fixed at 10 mg/L in combinations, FDC in iron-depleted broth
Description: as §4, §5

[6] = system: ADC-7 in pBCSK(−) E. coli DH10B; assay: Broth microdilution AST, ADC-7; type: cell-based; details: Escherichia coli, E. coli DH10B ADC-7, MB076 fixed at 10 mg/L in combinations, FDC in iron-depleted broth
Description: as §4, §5

ADC-33 [7] = molecular target: T1, ADC-33; details: ADC-33; substrate
Description: Steady-state kinetic parameters were determined by combining pure enzyme with antibiotic substrates in 50 mM NaH2PO4, pH 7.4 at room temperature. Changes in absorbance were measured on a Cary 60 UV–Vis spectrophotometer (Agilent Technologies) and converted to velocity using the change in extinction coefficient specific to nitrocefin (ε482 = 17,400 M^–1·cm^–1), cephalothin (ε262 = 7660 M^–1·cm^–1), ceftazidime (ε260 = 8660 M^–1·cm^–1), cefotaxime (ε260 = 7500 M^–1·cm^–1), cefepime (ε260 = 750 M^–1·cm^–1), cefiderocol (ε259 = 9430 M^–1·cm^–1), and ceftolozane (ε254 = 6810 M^–1·cm^–1). Initial velocities were fit to the Michaelis–Menten equation yielding kcat and KM values. For ADC/substrate combinations in which the KM was too large to accurately determine both kcat and KM values, the initial velocities at kcat/KM values were calculated from linear fits of vo in low [S] ranges (<0.08 × KM).

[8] = system: ADC-212 in pBCSK(−) E. coli DH10B; assay: Agar dilution AST, ADC-212; type: cell-based; details: Escherichia coli, E. coli DH10B ADC-212, MB076, S02030, VAB fixed at 10 mg/L
Description: as §4, §5

[9] = system: ADC-30 in pBCSK(−) E. coli DH10B; assay: Agar dilution AST, ADC-30; type: cell-based; details: Escherichia coli, E. coli DH10B ADC-30, MB076, S02030, VAB fixed at 10 mg/L
Description: as §4, §5

[10] = system: ADC-33 in pBCSK(−) E. coli DH10B; assay: Broth microdilution AST, ADC-33; type: cell-based; details: Escherichia coli, E. coli DH10B ADC-33, MB076 fixed at 10 mg/L in combinations, FDC in iron-depleted broth
Description: as §4, §5

[11] = system: ADC-162 in pBCSK(−) E. coli DH10B; assay: Agar dilution AST, ADC-162; type: cell-based; details: Escherichia coli
Description: as §4, §5

[12] = system: ADC-219 in pBCSK(−) E. coli DH10B; assay: Agar dilution AST, ADC-219; type: cell-based; details: Escherichia coli, E. coli DH10B ADC-219, MB076, S02030, VAB fixed at 10 mg/L
Description: as §4, §5

[13] = system: ADC-219 in pBCSK(−) E. coli DH10B; assay: Broth microdilution AST, ADC-219; type: cell-based; details: Escherichia coli, E. coli DH10B ADC-219, MB076 fixed at 10 mg/L in combinations, FDC in iron-depleted broth
Description: as §4, §5

Nc1nnc(SCC(=O)N[C@@H](Cn2cc(C(=O)O)nn2)B(O)O)s1 [MB076, (R)-1-(2-(2-((5-Amino-1,3,4-thiadiazol-2-yl)thio)acetamido)-2-boronoethyl)-1H-1,2,3-triazole-4-carboxylic Acid]
half-life (physchem): 33 h | Ki (ADC variants): < 1000 nM | half-life at 2.5 μM (in vitro): 29 h | Ki (ADC-33 [1]): 100 ± 4 nM | Ki (ADC-7): 210 ± 16 nM | Ki (ADC-30): 58 ± 5 nM | reduction of the CTX MIC by MB076 ([2]; ADC-212, MB076 10 mg/L): 3 fold doubling dilution | Ki (ADC-162): 790 ± 39 nM | increase of susceptibility to CAZ relative to S02030 ([3]; ADC-33 variant, inhibitors 10 mg/L): 3 fold

CC(C)(O/N=C(\C(=O)N[C@@H]1C(=O)N2C(C(=O)[O-])=C(C[n+]3ccccc3)CS[C@H]12)c1csc(N)n1)C(=O)O [ceftazidime]
MIC [4]: 64 µg/mL | MIC [5]: 128 µg/mL | MIC [6]: 64 µg/mL | kcat (ADC-33 [7]): 3.71 s^–1 | MIC [8]: 256 µg/mL | MIC [9]: 64 µg/mL | MIC [10]: 2050 µg/mL | MIC [11]: 128 µg/mL | MIC [12]: 64 µg/mL | MIC ([2]; Escherichia coli, E. coli DH10B ADC-212, MB076 fixed at 10 mg/L in combinations, FDC in iron-depleted broth): 512 µg/mL | MIC ([3]; Escherichia coli, E. coli DH10B ADC-33, MB076, S02030, VAB fixed at 10 mg/L): 1020 µg/mL | MIC [13]: 256 µg/mL

From article PMC10350917 (Journal of Medicinal Chemistry, 2023)
